The values below come from US5981525A, “Indole derivatives useful in the treatment of osteoporosis” (SmithKline Beecham Corporation, priority 1995, dated 1999).

Counter-ions that a name gives are not always drawn.

The first assay concerns the target bafilomycin-sensitive ATPase. As to the kind of experiment: Inhibition of bafilomycin-sensitive ATPase in chicken osteoclasts (ATPase assay, Pi release). The assay is classed as biochemical. Conditions: chicken osteoclast membranes. The method, then: Vesicles were prepared from medullar bone obtained from tibiae and femurs of egg-laying hens which were calcium-starved for at least 15 days. Briefly, bone fragments were scraped with a 24 scalpel blade, suspended in 40 ml of isolation medium (0.2 M sucrose, 50 mM KCl, 10 mM Hepes, 1 mM EGTA, 2 mM dithiotheitrol, pH 7.4) and filtered through a 100 μm pore size nylon mesh. The whole procedure was performed at 4° C. After homogenisation in a potter (20 strokes) in 40 ml of isolation medium an initial centrifugation (6,500×gmax 20 min) was performed to remove mitochondria and lysosomes. The supematant was centrifuged at 100,000×gmax for 1 hr and the pellet was collected in 1 ml of isolation medium, divided into 200 μl aliquots, immediately frozen in liquid nitrogen and stored at -80° C. The protein content was determined using a Biorad colourimetric kit according to Bradford [M. Bradford, Anal. Biochem., 72, 248 (1976)]. For the proton transport assay, 5-10 μl of membranes were used.
Purification of osteoclast membranes. 1 ml of crude microsomal vesicles prepared above were applied (about 0.2 ml per tube ) on the top of a sucrose step-gradient consisting of 3.5 ml of 15%, 30% and 45% (w/w) sucrose in isolation medium and centrifuged at 280,000 gmax for 2 hours (SW 41 Ti rotor). After centrifugation the 30-45% sucrose interfaces were collected, diluted approx. 20-fold in isolation medium and pelletted at 100,000 gmax for 1 hour (SW 28 rotor). The pellet was then resuspended in 1 ml of isolation medium, aliquoted and frozen in liquid N2 and stored at -80° C. until used.
Inhibition of bafilomycin-sensitive ATPase activity was assessed in purified membrane vesicles by measuring the release of inorganic phosphate (Pi) during 30 min of incubation at 37° C. in a 96-well plate either in the presence or in the absence of bafilomycin Al. The reaction medium contained 1 mM ATP, 10 mM HEPES-Tris pH 8,50 mM KCl, 5 uM valinomycin, 5 uM nigericin, 1 mM CDTA-Tris, 100 uM ammonium molybdate, 0.2 M sucrose and membranes (20 ug protein/ml). The reaction was initiated by MgSO4 (8-arm pipette) and stopped, after 30 min, by addition of 4 volumes of the malachite green reagent (96-arm pipette) prepared according to Chan [Anal. Biochem. 157, 375 (1986)]. Absorbance at 650 nm was measured after 2 min using a microplate reader. Results are expressed as μmol (Pi)×mg protein^-1 ×hour^-1 and, for each experiment, represent the mean±sem of triplicates.
`COC(=O)/C(=C/C=C/c1cc2cc(Cl)ccc2[nH]1)OC` [Example 4, Methyl (2Z,4E)-5-(5-chloro-2-indolyl)-2-methoxy-2,4-pentadienoate]: the IC50 (as a rule, the concentration that inhibits the measured activity by half) worked out at 7 µM. This counts as single-digit micromolar.
Same read-out and setting: next, `COC(=O)/C(=C/C=C/c1cc2cc(Cl)c(Cl)cc2[nH]1)OC` [Example 6, Methyl (2Z,4E)-5-(5,6-dichloro-2-indolyl)-2-methoxy-2,4-pentadienoate]: 1.1 µM; `CO/C(=C\C=C\c1cc2cc(Cl)ccc2[nH]1)C(=O)NCc1cccnc1` [Example 15, (2Z,4E)-5-(5-Chloro-2-indolyl)-2-methoxy-N-(3-pyridylmethyl)-2,4-pentadienamide]: 22 µM.
`CO/C(=C\C=C\c1cc2cc(Cl)ccc2[nH]1)C(=O)N(Cc1ccccc1)CC(O)CO` (stereo not shown) [Example 20, (2Z,4E)-5-(5-Chloro-2-indolyl)-N-2,3-dihydroxypropyl-2-methoxy-N-phenylmethyl-2,4-pentadienamide] gave an IC50 of 15 µM. This IC50 and that of the compound before are within 1.5-fold of each other.
Take `CCN(CC)CCCNC(=O)/C(=C/C=C/c1cc2cc(Cl)ccc2[nH]1)OC` [Example 26, (2Z,4E)-5-(5-Chloro-2-indolyl)-N-[3-(diethylamino)-propyl]-2-methoxy-2,4-pentadienamide]: the IC50 came out at 3 µM.
For `CCOC(=O)/C(=C/C=C/c1cc2cc(Cl)ccc2[nH]1)OCC` [Example 30, Ethyl(2Z,4E)-5-(5-chloro-2-indolyl)-2-ethoxy-2,4-pentadienoate], 30 µM corresponded to half-maximal inhibition (IC50).
In turn, `CO/C(=C\C=C\c1cc2cc(Cl)ccc2[nH]1)C(=O)Nc1cccnc1` [Example 33] registered an IC50 of 4 µM.
`CCN(CC)CCCNC(=O)/C(=C/C=C/c1cc2cc(Cl)c(Cl)cc2[nH]1)OC` [Example 34, (2Z,4E)-5-(5,6-Dichloro-2-indolyl)-N-[3-(diethylamino)-propyl]-2-methoxy-2,4-pentadienamide] registered an IC50 of 0.17 µM.
For the compound `CO/C(=C\C=C\c1cc2cc(Cl)ccc2[nH]1)C(=O)NCc1ccc(N)cc1` [Example 37], the IC50 is 30 µM.
The same measure, in the same setting: next, `CO/C(=C\C=C\c1cc2cc(Cl)c(Cl)cc2[nH]1)C(=O)Nc1cccnc1` [Example 44, (2Z,4E)-5-(5,6-Dichloro-2-indolyl)-2-methoxy-N-(3-pyridyl)-2,4-pentadienamide]: 0.62 µM; `CO/C(=C\C=C\c1cc2cc(Cl)c(Cl)cc2[nH]1)C(=O)NCCCN(CC(=O)O)CC(=O)O` [Example 45, hydrochloride]: 14 µM; `CCN(CC)CCNC(=O)/C(=C/C=C/c1cc2cc(Cl)c(Cl)cc2[nH]1)OC` [Example 46, (2Z,4E)-5-(5,6-Dichloro-2-indolyl)-N-[2-(diethylamino)-ethyl]-2-methoxy-2,4-pentadienamide]: 0.59 µM.
Take `CO/C(=C\C=C\c1cc2cc(Cl)c(Cl)cc2[nH]1)C(=O)NCCCn1ccnc1` [Example 49, (2Z,4E)-5-(5,6-Dichloro-2-indolyl)-N-[3-(1H-imidazol-1-yl)-propyl]-2-methoxy-2,4-pentadienamide]: the IC50 came out at 4 µM.
The same measure, in the same setting: the figure for `CO/C(=C\C=C\c1cc2cc(Cl)c(Cl)cc2[nH]1)C(=O)N[C@@H]1CN2CCC1CC2` [Example 50, (2Z,4E)-N-[(S)-1-Azabicyclo[2.2.2]octan-3-yl]-5-(5,6-dichloro-2-indolyl)-2-methoxy-2,4-pentadienamide] is 0.62 µM.
For the compound `CO/C(=C\C=C\c1cc2cc(Cl)c(Cl)cc2[nH]1)C(=O)NCCCN1CCOCC1` [Example 51, (2Z,4E)-5-(5,6-Dichloro-2-indolyl)-N-[3-(morpholino)propyl]-2-methoxy-2,4-pentadienamide], the midpoint of inhibition, the IC50, lay at 1.1 µM.
The compound `CO/C(=C\C=C\c1cc2cc(Cl)c(Cl)cc2[nH]1)C(=O)NCCN1CCCCC1` [Example 53, (2Z,4E)-5-(5,6-Dichloro-2-indolyl)-N-[2-(1-piperidinyl)-ethyl]-2-methoxy-2,4-pentadienamide] returned an IC50 of 1.2 µM.
As to `CO/C(=C\C=C\c1cc2cc(Cl)c(Cl)cc2[nH]1)C(=O)NCCC1CCCN1C` (stereo not shown) [Example 54, (2Z,4E)-5-(5,6-Dichloro-2-indolyl)-2-methoxy-N-[2-[2-(1-methyl)pyrrolidinyl]ethyl]-2,4-pentadienamide], the midpoint of inhibition, the IC50, lay at 0.34 µM.
Compound `CO/C(=C\C=C\c1cc2cc(Cl)c(Cl)cc2[nH]1)C(=O)NC1CC(C)(C)NC(C)(C)C1` [Example 56, (2Z,4E)-5-(5,6-Dichloro-2-indolyl)-2-methoxy-N-[4-(2,2,6,6-tetramethyl)piperidinyl]-2,4-pentadienamide] gave a half-maximal inhibitory concentration (IC50) of 0.07 µM.
As for `CO/C(=C\C=C\c1cc2cc(Cl)c(Cl)cc2[nH]1)C(=O)Nc1ccc(OC)nc1` [Example 57, (2Z,E)-5-(5,6-Dichloro-2-indolyl)-2-methoxy-N-[5-(2-methoxy)pyridyl]-2,4-pentadienamide], the IC50 worked out at 1.6 µM. Compared with the last compound, the IC50 is about 23-fold higher.
Same read-out and setting: next, `CO/C(=C\C=C\c1cc2cc(Cl)c(Cl)cc2[nH]1)C(=O)NCCCN1CCCCC1C` (stereo not shown) [Example 59, (2Z,4E)-5-(5,6-Dichloro-2-indolyl)-2-methoxy-N[3-[1-(2-methyl)piperidin-yl]-propyl]-2,4-pentadienamide]: 0.13 µM.
Compound `CO/C(=C\C=C\c1cc2cc(Cl)c(Cl)cc2[nH]1)C(=O)NN1CCN(C)CC1` [Example 60, (2Z,4E)-5-(5,6-Dichloro-2-indolyl)-2-methoxy-N-[1-(4-methylpiperazinyl)]-2,4-pentadienamide] displayed an IC50 of 0.85 µM.
Still for that read-out and setting: next, `CCN(CCCNC(=O)/C(=C/C=C/c1cc2cc(Cl)c(Cl)cc2[nH]1)OC)Cc1ccccc1` [Example 62]: 1.4 µM; `CO/C(=C\C=C\c1cc2cc(Cl)c(Cl)cc2[nH]1)C(=O)Nc1ncccn1` [Example 65, (2Z,4E)-5-(5,6-Dichloro-2-indolyl)-2-methoxy-N-(2-pyrimidinyl)-2,4-pentadienamide]: 17 µM.
In turn, `CO/C(=C\C=C\c1cc2cc(Cl)c(Cl)cc2[nH]1)C(=O)NC1CC2CCC(C1)N2C` (stereo not drawn) [Example 66, (2Z,4E)-6-(5,6-dichloro-2-indolyl)-N-[8-methyl-8-azabicyclo[3.2.1]oct-3β-yl]-2-methoxy-2,4-pentadienamide] yielded an IC50 of 0.1 µM. This IC50 lies about 170-fold lower than the previous one.
`CO/C(=C\C=C\c1cc2cc(Cl)c(Cl)cc2[nH]1)C(=O)NCCCN1CCN(C)CC1` [Example 67, (2Z,4E)-5-(5,6-Dichloro-2-indolyl)-2-methoxy-N-[3-[1-(4-methyl)piperazinyl]-propyl]-2,4-pentadienamide] yielded an IC50 of 1.3 µM.
Same read-out and setting: next, `CO/C(=C\C=C\c1cc2cc(Cl)c(Cl)cc2[nH]1)C(=O)NC1CCN(C)CC1` [Example 70, (2Z,4E)-5-(5,6-Dichloro-2-indolyl)-2-methoxy-N-[4-(1-methyl)-piperidinyl]-2,4-pentadienamide]: 0.12 µM.
As for `CO/C(=C\C=C\c1cc2cc(Cl)c(Cl)cc2[nH]1)C(=O)Nc1ncnc2[nH]ncc12` [Example 71, (2Z,4E)-5-(5,6-Dichloro-2-indolyl)-2-methoxy-N-(1H-pyrazolo[3,4-d]pyrimidin-4-yl)-2,4-pentadienamide], half-maximal inhibition (IC50) was put at 0.53 µM.

For a further assay, the system named is osteoclast cultures.
Assay: not given
Conditions: cited from earlier work.
Take `CO/C1=C\C(C)=C\[C@@H](C)[C@@H](O)[C@@H](C)C/C(C)=C/C=C/[C@H](OC)[C@@H]([C@@H](C)[C@@H](O)[C@H](C)[C@@]2(O)C[C@@H](O)[C@H](C)[C@@H](C(C)C)O2)OC1=O` [bafilomycin A1]: the “inhibition of bone resorption” value is recorded as “inhibit bone resorption”.

A further assay deals with osteoclast proton pump.
Assay: not given
Conditions: ruffled membrane vesicles from avian osteoclasts; cited from earlier work.
As for `CCN1C(=O)C=CC1=O` [N-ethylmaleimide], the “inhibition of proton transport” value is given as “inhibited”.
`Cc1nc2c(OCc3ccccc3)cccn2c1CC#N` [SCH 28080]: the “inhibition of proton transport” value was “not inhibited”.
For the compound `CO/C1=C\C(C)=C\[C@@H](C)[C@@H](O)[C@@H](C)C/C(C)=C/C=C/[C@H](OC)[C@@H]([C@@H](C)[C@@H](O)[C@H](C)[C@@]2(O)C[C@@H](O)[C@H](C)[C@@H](C(C)C)O2)OC1=O` [bafilomycin A1], the “inhibition of proton transport” value is “inhibited”.
`COc1ccc2[nH]c([S+]([O-])Cc3ncc(C)c(OC)c3C)nc2c1` (stereo not shown) [omeprazole]: the “inhibition of proton transport” value was “not inhibited”.
`C[C@@H]1O[C@@H](O[C@H]2C[C@@H](O)[C@]3(CO)[C@H]4[C@H](O)C[C@]5(C)[C@@H](C6=CC(=O)OC6)CC[C@]5(O)[C@@H]4CC[C@]3(O)C2)[C@H](O)[C@H](O)[C@H]1O` [ouabain]: the “inhibition of proton transport” value is “not inhibited”.
`[Na+].[Na+].[Na+].[O]=[V]([O-])([O-])[O-]` [sodium orthovanadate]: the “inhibition of proton transport” value was “not inhibited”.
